Columns and labels:
[1] = test system: Wheat Powdery Mildew (Erysiphe graminis or blumeria graminis); assay: Open field trial on wheat, wheat powdery mildew, natural contamination; type: in vivo; settings: 20 days after application 2, BBCH73
Experimental: (§1) They are intended to give an illustration of the efficacy of the composition according to the invention on several cereal diseases, in particular a composition combining compound (A), having as chemical name N-ethyl-N-methyl-N′-[4-(chloro-3-trifluoromethylphenoxy)-2,5-xylyl]formamidine, with a fungicide compound of the triazole type, namely prothioconazole. The trials on cereals were carried out in an open field.
(§2) The objective of these field trials is therefore to test the efficacy of compounds (A), alone at 100 g/ha; 125 g/ha and 150 g/ha in combination with prothioconazole at 150 g a.i./ha; representing a class of fungicide compounds. Powdery mildew (Erysiphe graminis or blumeria graminis) and Septoria diseases (Mycosphaerella graminicola or Septoria tritici) are the principal diseases treated.
(§3) The products tested are therefore • N-ethyl-N-methyl-N′-[4-(chloro-3-trifluorométhylphénoxy)-2,5-xylyl]-formamidine as compound (A) at 100 g/ha; 125 g/ha and 150 g/ha as an EC type formulation at 150 g/l; • prothioconazole as compound (B) at 150 g/ha as a formulation at 250 g/l; • compound (A) and prothioconazole combination at 100+150 g/ha as a fresh preparation; • compound (A) and prothioconazole combination at 125+150 g/ha as a fresh preparation; • compound (A) and prothioconazole combination at 150+150 g/ha as a fresh preparation; • the reference product is a mixture of epoxyconazole and pyraclostrobin (Opera® 1,51/ha recommended on Septoria tritici).
(§4) Each trial comprises 3 repeats.
(§5) Untreated control plots are included in the experimental design in order to measure the severity of the diseases.
The trials were conducted under natural contamination conditions. The equipment for application of the different active ingredients is a constant compressed air pressure back sprayer. The spray nozzles have slits. […]
The results were measured 20 days after the second application of the products onto wheat and are presented in table 2; for Erysiphe graminis, assessment 20 days after application 2 at stage BBCH73 by observations of Flag leaf-Flag-1-Flag-2.

[2] = test system: Wheat Leaf-spot (Septoria tritici or Mycosphaerella graminicola); assay: Open field trial on wheat, wheat leaf-spot, natural contamination; type: in vivo; settings: 30 days after application 2, BBCH73
Experimental: as §1, §2, §3, §4, §5
The trials were conducted under natural contamination conditions. The equipment for application of the different active ingredients is a constant compressed air pressure back sprayer. The spray nozzles have slits.
The efficacy results were obtained from controls carried out in the field by overall evaluation of the percentage infestation.
The results were measured 30 days after the second application and are presented in table 3; for Septoria tritici, assessment 30 days after application 2 at stage BBCH73 by observations of Flag leaf-Flag-1-Flag-2.

Compound | % Efficacy observed (X) ([1]; 150 g ai/Ha) [%] | % Efficacy observed (X) ([2]; 150 g ai/Ha) [%] | % Efficacy observed (X) ([1]; 125 g ai/Ha) [%] | % Efficacy observed (X) ([2]; 100 g ai/Ha) [%] | % Efficacy observed (X) ([2]; 125 g ai/Ha) [%]
OC(Cc1ccccc1Cl)(Cn1nc[nH]c1=S)C1(Cl)CC1 (stereo not shown) [prothioconazole, reference compound] | 71 | 69 |  |  | 
CCN(C)C=Nc1cc(C)c(Oc2ccc(Cl)c(C(F)(F)F)c2)cc1C [Compound A] | 14 | 24 | 16 | 17 | 19

— patent publication US20070155802A1, “Fungicide composition comprising an arylamidine derivative and known fungicide compounds” (priority 2004, published 2007)
